Experimental data: US10556914B2, “Substituted isoxazolopyridazinones and isothiazolopyridazinones and methods of use” (AbbVie Inc., priority 2015, dated 2020)

Target: GABA-B receptor (Rattus norvegicus (Rat), UniProt O88871+Q9Z0U4)
Assay: [35S]GTPgS Binding Assay (rat brain cortex membranes, native receptor)
Format: biochemical
Conditions: rat cortical membranes; in the presence of 1 μM GABA (EC25); basal binding 0%, maximal binding (1 mM GABA) 100%
Experimental: Preparation of Rat Brain Membranes for Native Receptor Assays
Membranes from rat brain cortex were prepared as described in detail by Olpe et al. and stored at concentrations of 1.66 mg/mL protein at −80° C. until required. (Olpe, H.-R, et al. Eur J Pharmacol 1990; 187: 27-38).
[^35S]GTPgS Binding Assay
The samples were incubated at room temperature for 60 minutes on a shaker. The incubation was stopped by rapid vacuum filtration over glass-fiber filter plates (UniFilter-96 well, GF/B membrane plates, PerkinElmer) using a 96-well plate harvester (TOMTEK© Harvester). The UniFilter plate was washed five times with ice-cold wash buffer (50 mM Tris-HCl buffer, pH 7.7, 10 mM MgCl2, and 100 mM NaCl. After filtration the plate was dried for 90 minutes at 55° C. The plates were closed on the bottom with black sealing membranes, and liquid scintillation cocktail (35 μL, Betaplate Scint, PerkinElmer) was added to each well. After sealing the top of the plate, an additional incubation step of 90 minutes at room temperature followed before measuring the plate. The amount of membrane-bound [^35S]GTPgS was measured using a 96-well plate reader (Microbeta®, PerkinElmer). Nonspecific binding was measured in the presence of unlabeled 10 μM of GTPgS (Millipore) and without GABA. Basal binding was measured in the absence of 1 μM GABA, and maximal binding was measured in the presence of GABA using 1 mM GABA concentrations.
Data analysis. The concentration-response curves of compounds of the present disclosure in the presence of EC25 of GABA-B receptor agonist were generated using the GraphPad Prism® program (GraphPad Software, San Diego, Calif.). Data was normalized using basal binding as 0% and maximal binding as 100%. The curves were fitted by nonlinear regression allowing determination of EC50 values from sigmoidal dose-response curves. Each curve was performed using triplicate sample per date point and 10 concentrations.

GABA-B receptor, sequence (Q9Z0U4 17-960): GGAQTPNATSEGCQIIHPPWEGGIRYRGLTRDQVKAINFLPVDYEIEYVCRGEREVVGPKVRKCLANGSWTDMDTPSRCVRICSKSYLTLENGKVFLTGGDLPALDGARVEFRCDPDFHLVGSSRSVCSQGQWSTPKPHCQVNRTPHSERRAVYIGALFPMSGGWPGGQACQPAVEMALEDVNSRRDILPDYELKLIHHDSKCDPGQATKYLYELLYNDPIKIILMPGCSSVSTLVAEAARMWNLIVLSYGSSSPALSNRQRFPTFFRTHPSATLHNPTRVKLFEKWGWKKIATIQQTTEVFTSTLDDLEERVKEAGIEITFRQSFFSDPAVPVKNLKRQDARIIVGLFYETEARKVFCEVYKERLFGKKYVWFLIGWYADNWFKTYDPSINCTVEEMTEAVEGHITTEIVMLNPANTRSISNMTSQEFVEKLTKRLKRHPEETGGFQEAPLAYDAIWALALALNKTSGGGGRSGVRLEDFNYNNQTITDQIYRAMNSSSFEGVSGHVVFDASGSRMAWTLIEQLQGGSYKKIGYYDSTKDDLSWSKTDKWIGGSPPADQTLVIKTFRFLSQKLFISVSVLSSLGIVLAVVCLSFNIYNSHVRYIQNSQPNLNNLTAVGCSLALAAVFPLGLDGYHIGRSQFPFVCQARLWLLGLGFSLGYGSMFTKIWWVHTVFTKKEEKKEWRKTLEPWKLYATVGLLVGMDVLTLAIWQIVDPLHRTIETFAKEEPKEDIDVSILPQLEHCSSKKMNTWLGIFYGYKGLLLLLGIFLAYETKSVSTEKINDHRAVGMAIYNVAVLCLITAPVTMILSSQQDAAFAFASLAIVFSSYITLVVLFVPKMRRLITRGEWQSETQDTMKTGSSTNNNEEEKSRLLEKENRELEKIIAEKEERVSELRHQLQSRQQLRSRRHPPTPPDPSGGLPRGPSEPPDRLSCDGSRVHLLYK
GABA-B receptor, sequence (O88871 41-940): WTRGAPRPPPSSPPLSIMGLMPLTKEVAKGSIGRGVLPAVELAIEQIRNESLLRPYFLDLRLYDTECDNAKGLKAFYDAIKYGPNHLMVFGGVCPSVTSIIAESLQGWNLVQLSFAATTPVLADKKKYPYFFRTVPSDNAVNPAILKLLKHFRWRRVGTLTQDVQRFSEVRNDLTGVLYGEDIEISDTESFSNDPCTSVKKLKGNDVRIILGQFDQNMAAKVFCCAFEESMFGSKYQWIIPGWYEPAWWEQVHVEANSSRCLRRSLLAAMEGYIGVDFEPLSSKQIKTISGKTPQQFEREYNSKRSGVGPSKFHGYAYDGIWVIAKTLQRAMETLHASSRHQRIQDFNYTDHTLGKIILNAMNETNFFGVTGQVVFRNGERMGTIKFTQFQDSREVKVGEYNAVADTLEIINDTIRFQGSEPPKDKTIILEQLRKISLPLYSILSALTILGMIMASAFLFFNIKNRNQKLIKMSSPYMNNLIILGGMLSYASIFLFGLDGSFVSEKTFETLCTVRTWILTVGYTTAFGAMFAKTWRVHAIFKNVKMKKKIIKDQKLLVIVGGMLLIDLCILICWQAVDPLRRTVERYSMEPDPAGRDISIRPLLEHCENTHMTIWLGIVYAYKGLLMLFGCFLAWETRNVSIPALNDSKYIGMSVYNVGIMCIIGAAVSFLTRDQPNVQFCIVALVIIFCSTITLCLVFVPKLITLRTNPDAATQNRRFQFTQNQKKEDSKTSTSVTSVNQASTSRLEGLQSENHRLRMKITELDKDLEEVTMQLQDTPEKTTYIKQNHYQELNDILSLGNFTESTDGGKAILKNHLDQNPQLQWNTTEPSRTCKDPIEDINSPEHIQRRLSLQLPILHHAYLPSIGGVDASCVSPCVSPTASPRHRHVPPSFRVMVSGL

EC50 [nM] | Compound
33 | COc1ccc(NC(C)=O)cc1-c1nn([C@H](C)c2ccc(C(F)(F)F)cc2)c(=O)c2c(C)noc12 [Example 105, N-[4-methoxy-3-(3-methyl-4-oxo-5-{(1R)-1-[4-(trifluoromethyl)phenyl]ethyl}-4,5-dihydro[1,2]oxazolo[4,5-d]pyridazin-7-yl)phenyl]acetamide]
> 10000 | CNC(=O)c1ccc(OC)c(-c2nn([C@H](C)c3ccc(Cl)cc3)c(=O)c3c(C)noc23)c1 [Example 111, 3-{5-[(1R)-1-(4-chlorophenyl)ethyl]-3-methyl-4-oxo-4,5-dihydro[1,2]oxazolo[4,5-d]pyridazin-7-yl}-4-methoxy-N-methylbenzamide]
4810 | CC(=O)Nc1cccc(-c2nn([C@H](C)c3ccc(Cl)cc3)c(=O)c3c(C)noc23)c1 [Example 34, N-(3-{5-[(1R)-1-(4-chlorophenyl)ethyl]-3-methyl-4-oxo-4,5-dihydro[1,2]oxazolo[4,5-d]pyridazin-7-yl}phenyl)acetamide]
491 | COc1ccc(F)cc1-c1nn(C(C)c2ccc(Cl)cc2)c(=O)c2c(C)noc12 (centres unmarked) [Example 63, 5-[1-(4-chlorophenyl)ethyl]-7-(5-fluoro-2-methoxyphenyl)-3-methyl[1,2]oxazolo[4,5-d]pyridazin-4(5H)-one]
80 | COc1ccc(NS(C)(=O)=O)cc1-c1nn(C(C)c2ccc(Cl)cc2)c(=O)c2c(C)noc12 (centres unmarked) [Example 55, N-(3-{5-[1-(4-chlorophenyl)ethyl]-3-methyl-4-oxo-4,5-dihydro[1,2]oxazolo[4,5-d]pyridazin-7-yl}-4-methoxyphenyl)methanesulfonamide]
1470 | CC(=O)Nc1ccc(C)c(-c2nn(Cc3ccc(C(F)(F)F)cc3)c(=O)c3c(C)noc23)c1 [Example 107, N-(4-methyl-3-{3-methyl-4-oxo-5-[4-(trifluoromethyl)benzyl]-4,5-dihydro[1,2]oxazolo[4,5-d]pyridazin-7-yl}phenyl)acetamide]
511 | COc1ccc(C(F)(F)F)cc1-c1nn(C(C)c2ccc(Cl)cc2)c(=O)c2c(C)noc12 (centres unmarked) [Example 79, 5-[1-(4-chlorophenyl)ethyl]-7-[2-methoxy-5-(trifluoromethyl)phenyl]-3-methyl[1,2]oxazolo[4,5-d]pyridazin-4(5H)-one]
982 | Cc1noc2c(-c3cccs3)nn(Cc3ccc(Cl)cc3)c(=O)c12 [Example 56, 5-(4-chlorobenzyl)-3-methyl-7-(thiophen-2-yl)[1,2]oxazolo[4,5-d]pyridazin-4(5H)-one]
1660 | Cc1noc2c(-c3cc(F)nc(F)c3)nn(C(C)c3ccc(Cl)cc3)c(=O)c12 (centres unmarked) [Example 4, 5-[1-(4-chlorophenyl)ethyl]-7-(2,6-difluoropyridin-4-yl)-3-methyl[1,2]oxazolo[4,5-d]pyridazin-4(5H)-one]
450 | COc1ccc(C(=O)N2CCCC2)cc1-c1nn(C(C)c2ccc(Cl)cc2)c(=O)c2c(C)noc12 (centres unmarked) [Example 98, 5-[1-(4-chlorophenyl)ethyl]-7-[2-methoxy-5-(pyrrolidin-1-ylcarbonyl)phenyl]-3-methyl[1,2]oxazolo[4,5-d]pyridazin-4(5H)-one]
3200 | COCc1noc2c(-c3cccc(NC(C)=O)c3)nn(Cc3ccc(Cl)cc3)c(=O)c12 [Example 27, N-{3-[5-(4-chlorobenzyl)-3-(methoxymethyl)-4-oxo-4,5-dihydro[1,2]oxazolo[4,5-d]pyridazin-7-yl]phenyl}acetamide]
2130 | Cc1noc2c(-c3ccccc3N)nn(C(C)c3ccc(Cl)cc3)c(=O)c12 (centres unmarked) [Example 14, 7-(2-aminophenyl)-5-[1-(4-chlorophenyl)ethyl]-3-methyl[1,2]oxazolo[4,5-d]pyridazin-4(5H)-one]
644 | COc1ccc(NC(C)=O)cc1-c1nn(Cc2ccc(C(F)(F)F)cc2)c(=O)c2c(C)noc12 [Example 64, N-(4-methoxy-3-{3-methyl-4-oxo-5-[4-(trifluoromethyl)benzyl]-4,5-dihydro[1,2]oxazolo[4,5-d]pyridazin-7-yl}phenyl)acetamide]
3090 | Cc1noc2c(-c3ccc(F)cc3)nn(Cc3ccc(Cl)cc3)c(=O)c12 [Example 83, 5-(4-chlorobenzyl)-7-(4-fluorophenyl)-3-methyl[1,2]oxazolo[4,5-d]pyridazin-4(5H)-one]
1200 | COc1ccccc1-c1nn(Cc2ccc(F)c(C(F)(F)F)c2)c(=O)c2c(C)noc12 [Example 54, 5-[4-fluoro-3-(trifluoromethyl)benzyl]-7-(2-methoxyphenyl)-3-methyl[1,2]oxazolo[4,5-d]pyridazin-4(5H)-one]
2930 | COc1ccccc1-c1nn(Cc2ccc(C(F)(F)F)cc2)c(=O)c2c(C)noc12 [Example 118, 7-(2-methoxyphenyl)-3-methyl-5-[4-(trifluoromethyl)benzyl][1,2]oxazolo[4,5-d]pyridazin-4(5H)-one]
501 | Cc1noc2c(-c3cccc(N)c3)nn(C(C)c3ccc(Cl)cc3)c(=O)c12 (centres unmarked) [Example 126, 7-(3-aminophenyl)-5-[1-(4-chlorophenyl)ethyl]-3-methyl[1,2]oxazolo[4,5-d]pyridazin-4(5H)-one]
6820 | Cc1noc2c(-c3cccnc3)nn(Cc3ccc(Cl)cc3)c(=O)c12 [Example 120, 5-(4-chlorobenzyl)-3-methyl-7-(pyridin-3-yl)[1,2]oxazolo[4,5-d]pyridazin-4(5H)-one]
2480 | Cc1noc2c(-c3cc(F)cc(F)c3N)nn(C(C)c3ccc(Cl)cc3)c(=O)c12 (centres unmarked) [Example 77, 7-(2-amino-3,5-difluorophenyl)-5-[1-(4-chlorophenyl)ethyl]-3-methyl[1,2]oxazolo[4,5-d]pyridazin-4(5H)-one]
2110 | CCc1noc2c(-c3cccc(NC(C)=O)c3)nn(Cc3ccc(Cl)cc3)c(=O)c12 [Example 129, N-{3-[5-(4-chlorobenzyl)-3-ethyl-4-oxo-4,5-dihydro[1,2]oxazolo[4,5-d]pyridazin-7-yl]phenyl}acetamide]
3670 | COc1ccc(-c2nn(Cc3ccc(F)c(C(F)(F)F)c3)c(=O)c3c(C)noc23)c(OC)c1 [Example 37, 7-(2,4-dimethoxyphenyl)-5-[4-fluoro-3-(trifluoromethyl)benzyl]-3-methyl[1,2]oxazolo[4,5-d]pyridazin-4(5H)-one]
1760 | CCc1nn([C@H](c2ccccc2)c2ccc(Cl)cc2)c(=O)c2c(CC)noc12 (single isomer, unassigned) [Example 75]
1740 | COc1ccc(OC)c(-c2nn(Cc3ccc(C(F)(F)F)cc3)c(=O)c3c(C)noc23)c1 [Example 95, 7-(2,5-dimethoxyphenyl)-3-methyl-5-[4-(trifluoromethyl)benzyl][1,2]oxazolo[4,5-d]pyridazin-4(5H)-one]
39 | COc1ccc(C(=O)O)cc1-c1nn(C(C)c2ccc(Cl)cc2)c(=O)c2c(C)noc12 (centres unmarked) [Example 73]
1390 | CCc1nn([C@@H](c2ccccc2)c2ccc(Cl)cc2)c(=O)c2c(CC)noc12 (single isomer, unassigned) [Example 89]
222 | Cc1ccc(O)cc1-c1nn(C(C)c2ccc(Cl)cc2)c(=O)c2c(C)noc12 (centres unmarked) [Example 16, 5-[1-(4-chlorophenyl)ethyl]-7-(5-hydroxy-2-methylphenyl)-3-methyl[1,2]oxazolo[4,5-d]pyridazin-4(5H)-one]
